Source: patent US20090305259A1, “Early Diagnosis of Congenital Abnormalities in the Offspring of Diabetic Mothers” (YALE UNIVERSITY, priority 2006, published 2009)
Entries after “also recorded” stand apart in the source; their conditions may differ.

Assays:
yolk sac vasculogenesis = assay: Whole conceptus culture: yolk sac vasculogenesis under hyperglycemia; format: cell-based, mouse; conditions: for rescue of hyperglycemia-arrested yolk sac vascular development (arborization): conceptus culture with 20 mM D-glucose plus agent, PECAM-1 staining
Method: Timed pregnant mice are used to harvest 7.5 and 9.5 days post conception (dpc) conceptuses from which yolk sac and hearts are dissected. The atrioventricular canals are isolated for subsequent culture and analysis of the epithelial to mesenchymal transformation that occurs in the formation of the endocardial cushion.
(§1) Conceptuses are cultured for 48 hrs in the presence of rat serum or rat serum+20 mM D-Glucose, or rat serum+20 mM D-Glucose+rVEGF or NO donor or 20 mM mannitol for 48 hrs. At 8.5 dpc the yolk sacs are harvested and analyzed using LC-MS and LC-MS-MS methods as well as by traditional cell and molecular biological methods. At 9.5 dpc atrioventricular (AV) canals are harvested from the conceptuses and cultured for 48 to 72 hrs on collagen gels to allow epithelial-mesenchymal transformation (EMT). The AV canal cultures are analyzed by double or triple label standard and confocal immunofluorescence microscopy, laser dissection capture microscopy followed by Western blotting for protein determination, characterization and localization. The effects of exogenous VEGF-A (1, 10 & 20 ng/ml), Pro- and mature BDNF (1, 25 & 50 ng/ml), NO donor (Noc-18) TIMP-1 and TIMP-2 (1, 25 & 50 ng/ml) on EMT and protein expression, post-translational modification and degradation are assessed.
Using this embryo culture system, groups of ten 7.5 dpc conceptuses were cultured in normoglycemic conditions (5.0 mM D-glucose [control]), hyperglycemic conditions (20 mM D-glucose [HG]), HG+10 pg/ml VEGF A165 (HG+rVEGF) and HG+a slow release NO donor (HG+Noc-18) for 24 hrs. The conceptuses were harvested at 8.5 dpc when their yolk sacs were at the primary capillary plexus stage and beginning to undergo vascular remodeling. Lysates were then prepared for SDS-PAGE, Silver Staining and MS analysis. FIG. 4A depicts PECAM-1 staining of the capillary plexas at 8.5 dpc and illustrates the non-descript vascular plexus observable at this stage of development. […] This is in contrast to LC-MS and LC-MS-MS analyses of these samples (see below).

cardiac EMT = conditions: cardiac A-V canal and outflow tract cultures, 20 mM D-glucose; cited from earlier work
developing conceptuses = conditions: 250 mg/kg prior to mating; fast elimination; cited from earlier work
Wnt16 = assay: Western blot of Wnt16 in yolk sacs across treatment groups; format: cell-based, mouse; conditions: yolk sac / whole conceptus culture, 20 mM D-glucose plus agent
Method: as §1
(§2) Further, several of these proteins were validated in conceptus culture assays prior to and following VEGF and NO donor rescues using Western blotting, histological and immunolocalization analyses. […] Further, sequestration of Wnt16 (FIG. 11), ADAM 15 (FIG. 12), and NOGO A (FIG. 13) by antibodies directed against them abrogated EMT in cardiac AVC cushion explant cultures. […]

ADAM 15 = assay: Western blot of ADAM 15 in yolk sacs across treatment groups; format: cell-based, mouse; conditions: yolk sac / whole conceptus culture, 20 mM D-glucose plus agent
Method: as §1, §2

NOGO A = assay: Western blot of NOGO A in yolk sacs across treatment groups; format: cell-based, mouse; conditions: yolk sac culture, hyperglycemia plus agent, listed as NO donor
Method: as §1, §2

## OC[C@H]1O[C@H](O)[C@H](O)[C@@H](O)[C@@H]1O [alpha-D-glucose]
Yolk sac vasculogenesis; transient (as little as 3 hr) exposure, 20 mM alpha-D-glucose
  effect on yolk sac vasculogenesis: arrest yolk sac vasculogenesis at the primary capillary plexus stage
Cardiac EMT
  effect on cardiac cushion formation: arrested cushion formation

## CN(N=O)C(=O)N[C@H]1C(O)O[C@H](CO)[C@@H](O)[C@@H]1O (mixture of isomers) [Streptozotocin]
Developing conceptuses
  toxic effect on the developing conceptuses: no toxic effect

## NCCN(CCN)/[N+]([O-])=N/O [NOC-18]
Yolk sac vasculogenesis
  rescue of hyperglycemia-arrested yolk sac vascular development (arborization): rescue of the hyperglycemic arrest of vascular development; also recorded: restore normal vascular morphology; also recorded: rescue of yolk Sac vascular development
Yolk sac vasculogenesis; listed as NO donor
  rescue of hyperglycemia-arrested yolk sac vascular development (arborization): reversed
Yolk sac vasculogenesis; listed as NOD
  rescue of hyperglycemia-arrested yolk sac vascular development (arborization): restores vascular arborization
Wnt16
  Wnt16 expression level (upregulated by hyperglycemia) after treatment: down-regulated to near normoglycemic levels
Wnt16; listed as NO donor
  Wnt16 expression level (upregulated by hyperglycemia) after treatment: rescued; also recorded: returned to normal levels
ADAM 15
  ADAM 15 expression level (downregulated by hyperglycemia) after treatment: up-regulated to near normoglycemic levels
ADAM 15; listed as NO donor
  ADAM 15 expression level (downregulated by hyperglycemia) after treatment: rescued; also recorded: returned to normal levels
NOGO A
  NOGO A expression level (downregulated by hyperglycemia) after treatment: rescued; also recorded: returned to normal levels
